The values that follow come from patent US7943628B2, “Pyrimidine derivatives” (Pfizer Limited, priority 2005, dated 2011).

This test addresses T1, histamine H4 receptor (Homo sapiens, UniProt Q9H3N8).
T1 construct: expressed in transfected cells; host or cells: CHO cells
As to the kind of experiment: H4 binding, method 1 ([3H]-histamine filtration binding on CHO cell membranes). The settings on record: for Method 1, activity at top dose (10 μM): top dose 10 μM; for Ki: H4 binding, method 1, Ki calculated from IC50 (Cheng-Prussoff); for inhibition at 10 µM / inhibition at 20 µM: 1.5 h. The method, then: Cell pellets from CHO cells expressing the histamine H4 receptor were homogenised in ice-cold 50 mM Tris-HCl/0.5 mM CaCl2 buffer containing a protease inhibitor cocktail (Roche®, United Kingdom) using a ground glass homogeniser. Homogenates were centrifuged at 48000 g for 30 min at 4° C. The membrane pellet was resuspended in fresh buffer and the centrifugation step was repeated as described above. The membrane pellet was resuspended in 50 mM Tris-HCl in the same volume as the original cell pellet. Aliquots of membrane preparations were stored at −80° C. and were used for [^3H]-Histamine binding experiments.
Cell membranes (20-35 μg/well) were incubated for 90 minutes shaking at room temperature with 3 nM [2,5-^3H]Histamine dihydrochloride (30-60 Ci/mmol) in 50 mM Tris-HCl (pH 7.4), with or without competing H4 ligands. The reaction was terminated by rapid filtration through 0.5% polyethylenimine-soaked Unifilter GF/B plates (Packard) followed by three washes with 1 ml ice-cold 50 mM Tris-HCl. Filters were dried for 45 min at 45° C. and bound radiolabel was determined using scintillation counting techniques. Non-specific binding was defined with 10 μM JNJ7777120.

T1 sequence (Q9H3N8 whole entry): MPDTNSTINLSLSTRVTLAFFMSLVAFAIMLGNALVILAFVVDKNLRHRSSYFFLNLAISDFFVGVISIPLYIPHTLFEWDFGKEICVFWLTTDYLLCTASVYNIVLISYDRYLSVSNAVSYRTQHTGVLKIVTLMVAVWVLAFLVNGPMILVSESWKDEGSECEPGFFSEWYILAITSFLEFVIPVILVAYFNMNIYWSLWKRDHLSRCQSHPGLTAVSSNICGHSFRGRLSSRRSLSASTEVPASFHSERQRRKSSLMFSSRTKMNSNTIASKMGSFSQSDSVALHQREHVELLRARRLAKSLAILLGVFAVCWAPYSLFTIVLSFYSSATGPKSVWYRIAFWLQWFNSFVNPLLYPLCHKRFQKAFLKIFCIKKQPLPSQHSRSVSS

As for `c1nc(NCC2CC2)cc(N2CCN(C3CCCCC3)CC2)n1` [Example 305, 6-(4-Cyclohexylpiperazin-1-yl)-N-(cyclopropylmethyl)pyrimidin-4-amine], the “Method 1, activity at top dose (10 μM)” value is “No activity at top”.

For the molecule `C[C@H]1CN(c2cc(NCc3ccc(F)cc3)nc(N)n2)CCN1` [Example 240, N^4-(4-Fluorobenzyl)-6-[(3S)-3-methylpiperazin-1-yl]pyrimidine-2,4-diamine], the Ki is 238 nM.

As to `CNC1CN(c2cc(N3CCOC[C@@H]3C)nc(N)n2)C1` [Example 242, 4-[3-(Methylamino)azetidin-1-yl]-6-[(3S)-3-methylmorpholiN^4-yl]pyrimidin-2-amine], the Ki is 258 nM.

For `Nc1nc(NCC2CC2)cc(N2C[C@@H]3CCCN[C@@H]3C2)n1` [Example 210, N^4-(Cyclopropylmethyl)-6-[(4aS,7aS)-octahydro-6H-pyrrolo[3,4-b]pyridin-6-yl]pyrimidine-2,4-diamine], the inhibition constant (Ki) is 48.9 nM.

For `CN[C@@H]1CCN(c2cc(NC34CC(C3)C4)nc(N)n2)C1` [Example 138, N^4-Bicyclo[1.1.1]pent-1-yl-6-[(3R)-3-(methylamino)pyrrolidin-1-yl]pyrimidine-2,4-diamine], the Ki is 5.8 nM.

Regarding `C[C@@H]1CN(c2cc(NCc3ccc(F)cc3)nc(N)n2)CCN1` [Example 247, N^4-(4-Fluorobenzyl)-6-[(3R)-3-methylpiperazin-1-yl]pyrimidine-2,4-diamine], the Ki was 312 nM.

`Nc1nc(NC2CCC2)cc(N2C[C@@H]3CCCN[C@@H]3C2)n1` [Example 178, N^4-Cyclobutyl-6-[(4aS,7aS)-octahydro-6H-pyrrolo[3,4-b]pyridin-6-yl]pyrimidine-2,4-diamine]: the Ki is 16.1 nM.

Consider `CN(C)CCNc1cc(NCC2CC2)nc(N)n1` [Example 176, N^4-(Cyclopropylmethyl)-N6-[2-(dimethylamino)ethyl]pyrimidine-2,4,6-triamine], for which the inhibition constant (Ki) is 15.1 nM.

Molecule `CC(C)(C)CNc1cc(N2C[C@H]3C[C@@]3(N)C2)ncn1` [Example 297, (1S,5R)-3-{6-[(2,2-Dimethylpropyl)amino]pyrimidin-4-yl}-3-azabicyclo[3.1.0]hexan-1-amine] showed an inhibition at 10 µM of 30%.

For the molecule `c1ccc(CNc2cc(N[C@H]3CCNC3)ncn2)cc1` [Example 281, N-Benzyl-N′-[(3S)-pyrrolidin-3-yl]pyrimidine-4,6-diamine], the Ki is 1550 nM.

Regarding `CN[C@H]1CCN(c2cc(NCC3CC3)nc(N)n2)C1` [Example 204, N^4-(Cyclopropylmethyl)-6-[(3S)-3-(methylamino)pyrrolidin-1-yl]pyrimidine-2,4-diamine], the inhibition constant Ki was 39 nM.

In turn, `CCCNc1cc(N2CCN[C@H](C)C2)ncn1` [Example 313, 6-[(3R)-3-Methylpiperazin-1-yl]-N-propylpyrimidin-4-amine] had an inhibition at 20 µM of 70%.

For `CN[C@H]1CCN(c2cc(NCC(C)(C)C)nc(N)n2)C1` [Example 177, N^4-(2,2-Dimethylpropyl)-6-[(3S)-3-(methylamino)pyrrolidin-1-yl]pyrimidine-2,4-diamine], the inhibition constant Ki is 16 nM.

With `CC(C)Nc1cc(N2C[C@H]3CNC[C@H]3C2)nc(N)n1` [Example 238, 6-[(3aR*,6aS*)-Hexahydropyrrolo[3,4-c]pyrrol-2(1H )-yl]-N^4-isopropylpyrimidine-2,4-diamine], the Ki was 222 nM.

On to `CN[C@@H]1CCN(c2cc(NC(C)C)nc(N)n2)C1` [Example 286, N^4-lsopropyl-6-[(3R)-3-(methylamino)pyrrolidin-1-yl]pyrimidine-2,4-diamine], for which the Ki is 1940 nM.

In the case of `CN[C@@H]1CCN(c2cc(NCc3ccc(F)cc3)nc(N)n2)C1` [Example 155, N^4-(4-Fluorobenzyl)-6-[(3R)-3-(methylamino)pyrrolidin-1-yl]pyrimidine-2,4-diamine], the Ki was 1.78 nM.

As to `CN1C[C@@H]2C[C@H]1CN2c1cc(NCCC(C)(C)C)ncn1` [Example 5, N-(3,3-Dimethylbutyl)-6-[(1S,4S)-5-methyl-2,5-diazabicyclo[2.2.1]hept-2-yl]pyrimidin-4-amine], the Ki was 263 nM.

As for `CNC1(C)CN(c2cc(NCCC(C)(C)C)nc(N)n2)C1` [Example 298, N^4-(3,3-Dimethylbutyl)-6-[3-methyl-3-(methylamino)azetidin-1-yl]pyrimidine-2,4-diamine], the “Method 1, activity at top dose (10 μM)” value was “No activity at top”.

`CCNc1cc(N2CCN(C)CC2)ncn1` [Example 103, N-Ethyl-6-(4-methylpiperazin-1-yl)pyrimidin-4-amine]: the Ki was 87.9 nM.

On to `Cn1ccnc1CN1CCN(c2cc(NCCC(C)(C)C)ncn2)CC1` [Example 299, N-(3,3-Dimethylbutyl)-6-{4-[(1-methyl-1H-imidazol-2-yl)methyl]piperazin-1-yl}pyrimidin-4-amine], for which the “Method 1, activity at top dose (10 μM)” value is on record as “No activity at top”.

Take `CN1CCCN(c2cc(NC3CC3)ncn2)CC1` [Example 224, N-Cyclopropyl-6-(4-methyl-1,4-diazepan-1-yl)pyrimidin-4-amine]: the Ki was 101 nM.

In the case of `CN1CCN(c2cc(NCCC(C)(C)C)nc(N)n2)CC1` [Example 102, N^4-(3,3-Dimethylbutyl)-6-(4-methylpiperazin-1-yl)pyrimidine-2,4-diamine], the Ki was 57.3 nM.

As to `CNC1(C)CN(c2cc(NCC3CC3)nc(N)n2)C1` [Example 196, N^4-(Cyclopropylmethyl)-6-[3-methyl-3-(methylamino)azetidin-1-yl]pyrimidine-2,4-diamine], the inhibitory constant (Ki) was 33.1 nM.

For the molecule `Nc1nc(NCC2CC2)cc(N2CC(N3CCCC3)C2)n1` [Example 136, N^4-(Cyclopropylmethyl)-6-(3-pyrrolidin-1-ylazetidin-1-yl)pyrimidine-2,4-diamine], the Ki was 7.21 nM.

`CN(C)C1[C@H]2CN(c3cc(NCCC(C)(C)C)ncn3)C[C@@H]12` (stereo partly drawn) [Example 300, (1R*,5S*,6s*)-3-{6-[(3,3-Dimethylbutyl)amino]pyrimidin-4-yl}-N,N-dimethyl-3-azabicyclo[3.1.0]hexan-6-amine]: the “Method 1, % at 10 μM” value (at 10 μM) was found to be 35% at 10 μM.

With `CN[C@@H]1CCN(c2cc(NCc3c(F)cccc3F)nc(N)n2)C1` [Example 271, N^4-(2,6-Difluorobenzyl)-6-[(3R)-3-(methylamino)pyrrolidin-1-yl]pyrimidine-2,4-diamine], the Ki is 870 nM.

`CC(C)(C)CNc1cc(N2CCC(N)CC2)nc(N)n1` [Example 201, 6-(4-Aminopiperidin-1-yl)-N^4-(2,2-dimethylpropyl)pyrimidine-2,4-diamine]: the Ki is 35 nM.

On to `CN[C@@H]1CCN(c2cc(NC3CC3)ncn2)C1` [Example 203, N-Cyclopropyl-6-[(3R)-3-(methylamino)pyrrolidin-1-yl]pyrimidin-4-amine], for which the inhibition constant Ki was 37.9 nM.

In the case of `CC(C)(C)CNc1cc(N2C[C@@H]3CCCN[C@@H]3C2)nc(N)n1` [Example 166, N^4-(2,2-Dimethylpropyl)-6-[(4aS,7aS)-octahydro-6H-pyrrolo[3,4-b]pyridin-6-yl]pyrimidine-2,4-diamine], the inhibition constant (Ki) was 3.99 nM.

On to `CC(C)(C)CCNc1cc(N[C@H]2CCN(Cc3ccc(CO)o3)C2)ncn1` [Example 274, (5-{[(3S)-3-({6-[(3,3-Dimethylbutyl)amino]pyrimidin-4yl}amino)pyrrolidin--1-yl]methyl}-2-furyl)methanol], for which the inhibition constant (Ki) was 1070 nM.

In turn, `Nc1nc(NCc2cc(F)ccc2F)cc(N2CC[C@@H](N)C2)n1` [Example 311, 6-[(3R)-3-Aminopyrrolidin-1-yl]-N^4-(2,5-difluorobenzyl)pyrimidine-2,4-diamine] displayed an inhibition at 20 µM of 80%.

For the molecule `CCN(CC)C1CCN(c2cc(NCC(C)(C)C)ncn2)C1` (centres unmarked) [Example 302, 6-[3-(Diethylamino)pyrrolidin-1-yl]-N-(2,2-dimethylpropyl)pyrimidin-4-amine], at 10 µM the inhibition was 20%.

Consider `C[C@@H]1CN(c2cc(NCc3ccccc3F)nc(N)n2)CCN1` [Example 237, N^4-(2-Fluorobenzyl)-6-[(3R)-3-methylpiperazin-1-yl]pyrimidine-2,4-diamine], for which the Ki was 211 nM.

For `CN[C@@H]1CCN(c2ncnc(NCC(C)(C)C)c2C)C1` [Example 326, N-(2,2-Dimethylpropyl)-5-methyl-6-[(3R)-3-(methylamino)pyrrolidin-1-yl]pyrimidin-4-amine], the inhibition at 20 µM turned out to be 48%.

Regarding `CC(C)Nc1cc(N2C[C@H]3CN(C)C[C@H]3C2)nc(N)n1` [Example 241, N^4-Isopropyl-6-[(3aR*,6aS*)-5-methylhexahydropyrrolo[3,4-c]pyrrol-2(1H)-yl]pyrimidine-2,4-diamine], the “Method 1, % at 1 μM” value (at 1 μM) amounted to 45% at 1 μM.

Take `CC(C)(C)CNc1cc(N2CC(N)C2)nc(N)n1` [Example 190, 6-(3-Aminoazetidin-1-yl)-N^4-(2,2-dimethylpropyl)pyrimidine-2,4-diamine]: the Ki was 27.7 nM.

For the molecule `c1nc(NCC2CC2)cc(N2CCNCC2)n1` [Example 285, N-(Cyclopropylmethyl)-6-piperazin-1-ylpyrimidin-4-amine], the inhibitory constant (Ki) was 1800 nM.

For `CC(C)(C)CNc1cc(N2CC[C@@H]3NCC[C@@H]3C2)nc(N)n1` (racemic) [Example 162, N^4-(2,2-Dimethylpropyl)-6-[(3aR*,7aS*)-octahydro-5H-pyrrolo[3,2-c]pyridin-5-yl]pyrimidine-2,4-diamine], the Ki is 2.91 nM.

Usually Ki stands for a measure of affinity in units of concentration, obtained from inhibition or displacement. Broadly, the inhibition is how much of the control response was suppressed. Read a high inhibition as strong suppression.
